SMILES strings stand for the structures.

What is called Kd is the equilibrium constant for the complex coming apart. A higher Kd goes with a looser complex.

Sequence of Mitogen-activated protein kinase kinase kinase 1/RAF proto-oncogene serine/threonine-protein kinase (P04049 whole entry): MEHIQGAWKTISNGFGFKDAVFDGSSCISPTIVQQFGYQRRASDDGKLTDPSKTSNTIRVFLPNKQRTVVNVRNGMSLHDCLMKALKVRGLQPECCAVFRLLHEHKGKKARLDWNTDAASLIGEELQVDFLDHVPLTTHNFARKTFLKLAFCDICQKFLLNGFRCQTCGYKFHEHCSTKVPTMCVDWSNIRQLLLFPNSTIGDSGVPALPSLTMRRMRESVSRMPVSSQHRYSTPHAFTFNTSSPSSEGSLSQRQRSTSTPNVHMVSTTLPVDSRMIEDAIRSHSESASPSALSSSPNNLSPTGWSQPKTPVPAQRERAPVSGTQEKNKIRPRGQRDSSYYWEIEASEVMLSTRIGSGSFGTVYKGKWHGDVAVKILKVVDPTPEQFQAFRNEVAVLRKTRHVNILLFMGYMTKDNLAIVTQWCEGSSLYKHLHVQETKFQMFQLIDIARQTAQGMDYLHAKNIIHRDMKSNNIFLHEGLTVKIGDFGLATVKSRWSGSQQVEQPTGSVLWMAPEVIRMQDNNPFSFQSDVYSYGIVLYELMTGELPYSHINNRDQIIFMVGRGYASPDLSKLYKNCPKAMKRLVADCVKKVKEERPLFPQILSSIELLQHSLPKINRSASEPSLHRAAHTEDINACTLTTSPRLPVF
Sequence of Mitogen-activated protein kinase kinase kinase 1/RAF proto-oncogene serine/threonine-protein kinase (Q13233 whole entry, further chain): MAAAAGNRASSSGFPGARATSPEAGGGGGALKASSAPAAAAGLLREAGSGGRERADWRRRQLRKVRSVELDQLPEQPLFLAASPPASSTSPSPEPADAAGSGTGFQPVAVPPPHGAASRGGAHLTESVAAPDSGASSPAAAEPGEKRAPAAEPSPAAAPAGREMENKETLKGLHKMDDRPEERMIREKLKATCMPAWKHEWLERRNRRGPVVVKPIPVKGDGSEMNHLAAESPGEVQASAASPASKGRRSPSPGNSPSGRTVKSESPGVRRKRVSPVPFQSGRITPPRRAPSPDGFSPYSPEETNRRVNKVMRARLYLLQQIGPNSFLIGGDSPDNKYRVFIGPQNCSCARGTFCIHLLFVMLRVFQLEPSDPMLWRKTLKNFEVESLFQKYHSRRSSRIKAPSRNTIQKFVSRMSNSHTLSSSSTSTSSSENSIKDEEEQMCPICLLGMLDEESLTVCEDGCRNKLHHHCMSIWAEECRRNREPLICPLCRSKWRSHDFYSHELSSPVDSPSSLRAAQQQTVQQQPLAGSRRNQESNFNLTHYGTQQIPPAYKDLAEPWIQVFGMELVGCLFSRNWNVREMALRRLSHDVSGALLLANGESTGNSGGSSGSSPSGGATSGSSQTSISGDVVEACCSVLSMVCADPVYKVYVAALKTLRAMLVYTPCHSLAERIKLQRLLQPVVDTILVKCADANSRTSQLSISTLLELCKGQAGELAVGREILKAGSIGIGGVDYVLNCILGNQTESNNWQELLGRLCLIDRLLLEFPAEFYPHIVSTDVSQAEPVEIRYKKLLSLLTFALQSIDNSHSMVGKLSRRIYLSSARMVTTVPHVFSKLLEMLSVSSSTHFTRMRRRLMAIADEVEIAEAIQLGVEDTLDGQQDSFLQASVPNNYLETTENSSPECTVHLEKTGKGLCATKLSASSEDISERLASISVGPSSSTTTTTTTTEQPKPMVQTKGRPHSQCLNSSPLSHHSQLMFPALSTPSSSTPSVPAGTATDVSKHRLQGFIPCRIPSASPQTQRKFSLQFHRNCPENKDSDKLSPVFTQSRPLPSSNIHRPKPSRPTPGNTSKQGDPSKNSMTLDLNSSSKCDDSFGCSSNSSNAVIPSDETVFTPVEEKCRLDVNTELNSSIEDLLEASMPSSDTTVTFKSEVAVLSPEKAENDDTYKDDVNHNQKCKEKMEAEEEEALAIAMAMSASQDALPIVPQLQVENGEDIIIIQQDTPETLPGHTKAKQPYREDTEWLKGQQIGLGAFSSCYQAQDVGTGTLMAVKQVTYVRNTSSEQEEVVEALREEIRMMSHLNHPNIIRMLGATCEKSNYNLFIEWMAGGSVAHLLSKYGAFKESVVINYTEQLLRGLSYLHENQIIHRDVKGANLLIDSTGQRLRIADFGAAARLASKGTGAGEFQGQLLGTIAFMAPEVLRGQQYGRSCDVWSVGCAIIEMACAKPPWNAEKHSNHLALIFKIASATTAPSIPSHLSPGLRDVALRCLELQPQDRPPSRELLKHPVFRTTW

This assay concerns the target Mitogen-activated protein kinase kinase kinase 1/RAF proto-oncogene serine/threonine-protein kinase (Homo sapiens, UniProt P04049+Q02750). The experiment in a line: AlphaLISA Assay. On the procedure: 5 μL 4×MEK1 stock solution was added to wells A1-P20 by multichannel pipettes. […] 5 μL 4×CRAF stock solution at different concentrations or 5 μL or 10 μL AlphaLISA buffer was added by multichannel pipettes. The plate was sealed, centrifuged at 1000 rpm for 1 minute, and incubated at room temperature for 60 minutes. 5 μL 4×glutathione acceptor beads were first added to all wells by multichannel pipettes. The ambient light was subsequently adjusted to <100 lux (light meter) before adding 5 μL 4×nickel chelate donor beads to the same wells. From this step on, the plate was covered with a black plate cover, centrifuged at 1000 rpm for 1 minute, and incubated at room temperature for 60 minutes.
For orientation: In Alpha technology, singlet oxygen from a donor bead excites a nearby acceptor bead.
Molecule `CNS(=O)(=O)Nc1cccc(Oc2c(C(=O)NC3CC3)c(Nc3ccc(I)cc3F)n(C)c(=O)c2C)c1OC` [US20230382863, Compound I-1] gave a Kd of 0.42 nM. This counts as sub-nanomolar.
For `CNS(=O)(=O)Nc1cccc(Oc2c(C(=O)NC3CC3)c(Nc3ccc(I)cc3F)n(C)c(=O)c2C)c1OC(F)(F)F` [US20230382863, Compound I-40], binding was characterised by a dissociation constant (Kd) of 0.47 nM.
In turn, `CNS(=O)(=O)Nc1cccc(Oc2c(C(=O)NC(C)C)c(Nc3ccc(I)cc3F)n(C)c(=O)c2C)c1Cl` [US20230382863, Compound I-41] yielded a Kd of 0.48 nM.
For `Cc1c(Oc2cccc(NS(=O)(=O)NC3CC3)c2Cl)c(C(=O)NC2CC2)c(Nc2ccc(I)cc2F)n(C)c1=O` [US20230382863, Compound I-42] the value was 0.57 nM.
For the molecule `CCNS(=O)(=O)Nc1cccc(Oc2c(C(=O)NC3CC3)c(Nc3ccc(I)cc3F)n(C)c(=O)c2C)c1Cl` [US20230382863, Compound I-43], binding was put at a Kd of 0.51 nM. The Kd values of the last two molecules are within 1.5-fold of each other.
For the molecule `CNS(=O)(=O)Nc1cccc(Oc2c(C(=O)NCC(F)(F)F)c(Nc3ccc(I)cc3F)n(C)c(=O)c2C)c1Cl` [US20230382863, Compound I-45], the Kd was found to be 0.38 nM.
Under `CCNC(=O)c1c(Oc2cccc(NS(=O)(=O)NC)c2Cl)c(C)c(=O)n(C)c1Nc1ccc(I)cc1F` [US20230382863, Compound I-54] stands 0.35 nM.
Under `COCCNS(=O)(=O)Nc1cccc(Oc2c(C(=O)NC3CC3)c(Nc3ccc(I)cc3F)n(C)c(=O)c2C)c1Cl` [US20230382863, Compound I-55] stands 0.51 nM.

The values above are taken from BindingDB's records for patent US20230382863 (Ikena Oncology, 2023).
